Assay results from patent publication US6372691B1, “Method for controlling weeds” (Sumitomo Chemical Company, Limited, priority 1999, dated 2002).

Tests used:
Type in all cases: in vivo
[1] = system: common lambsquarters (Chenopodium album); test: Test Example 1: foliar application in greenhouse pots, herbicidal activity; parameters: key: “0” means that there was no or little difference in the degree of germination or growth between the treated and the untreated tested plants at the time of examination; “10” means that the test plants died completely or their germination or growth was completely inhibited; details: index 0 to 10, 10 days after application
Method: (§1) The evaluation of phytotoxicity is as follows:
(§2) Plastic pots having a diameter of 11 cm and a depth of 8 cm were filled with upland soil, and seeded with common lambsquarters (Chenopodium album), ivyleaf morningglory (Ipomoea hederacea), velvetleaf (Abutilon theophrasti), and corn. The test plants were grown in a greenhouse for 7 days. After that, other corn was further seeded in each of the above pots and the test plants were grown in the greenhouse for further 19 days. Emulsifiable concentrate comprising compound A obtained by well mixing 5 parts of compound A, 6 parts of Sorpol 3005X (produced by Toho Chemical Industry, Co., Ltd.) and 89 parts of xylene was diluted with prescribed amount of water, and the dilution was applied over the test plants uniformly using a small sprayer. The leaf stage of the corns grown for 26 days and 19 days were 2-leaf stage and 1-leaf stage, respectively. After the application, the test plants were grown in the greenhouse for 10 days and then, herbicidal activity and phytotoxicity to corn were examined.

[2] = system: ivyleaf morningglory (Ipomoea hederacea); test: as above; parameters: key: “0” means that there was no or little difference in the degree of germination or growth between the treated and the untreated tested plants at the time of examination; “10” means that the test plants died completely or their germination or growth was completely inhibited; details: index 0 to 10, 10 days after application
Method: as §1, §2

[3] = system: velvetleaf (Abutilon theophrasti); test: as above; parameters: key: “0” means that there was no or little difference in the degree of germination or growth between the treated and the untreated tested plants at the time of examination; “10” means that the test plants died completely or their germination or growth was completely inhibited; details: index 0 to 10, 10 days after application
Method: as §1, §2

[4] = system: corn; test: Test Example 1: phytotoxicity to corn; parameters: key: No harm: Phytotoxicity is hardly seen.; Slight phytotoxicity which does not affect the growth of corn is seen.; Light phytotoxicity and light growth inhibition of corn are seen.; Middle phytotoxicity and growth inhibition of corn are seen.; Serious phytotoxicity and serious growth inhibition of corn are seen; details: 10 days after application; for Phytotoxicity C1: corn at 1-leaf stage; for Phytotoxicity C2: corn at 2-leaf stage
Excerpt: as §1
(§3) No harm: Phytotoxicity is hardly seen.
(§4) Light: Light phytotoxicity and light growth inhibition of corn are seen.
(§5) Middle: Middle phytotoxicity and growth inhibition of corn are seen.
(§6) Serious: Serious phytotoxicity and serious growth inhibition of corn are seen.
as §2

[5] = system: common cocklebur (Xanthium strumarium); test: Test Example 2: foliar application in greenhouse pots, herbicidal activity; parameters: key: “0” means that there was no or little difference in the degree of germination or growth between the treated and the untreated tested plants at the time of examination; “10” means that the test plants died completely or their germination or growth was completely inhibited; details: index 0 to 10, 10 days after application
Method: as §1
(§7) Plastic pots having a diameter of 11 cm and a depth of 8 cm were filled with upland soil, and seeded with common cocklebur (Xanthium strumarium) . The test plants were grown in a greenhouse for 5 days. After that, corn was further seeded in each of the above pots and the test plants were grown in the greenhouse for further 16 days. Emulsifiable concentrate comprising compound A or Comparative compound obtained by well mixing 5 parts of compound A or Comparative compound, 6 parts of Sorpol 3005X (produced by Toho Chemical Industry, Co., Ltd.) and 89 parts of xylene was diluted with prescribed amount of water, and the dilution was applied over the test plants uniformly using a small sprayer. The leaf stage of the corns grown for 16 days were 2-leaf stage. After the application, the test plants were grown in the greenhouse for 10 days and then, herbicidal activity and phytotoxicity to corn were examined.

[6] = system: corn; test: Test Example 2: phytotoxicity to corn; parameters: key: No harm: Phytotoxicity is hardly seen.; Slight phytotoxicity which does not affect the growth of corn is seen.; Light phytotoxicity and light growth inhibition of corn are seen.; Middle phytotoxicity and growth inhibition of corn are seen.; Serious phytotoxicity and serious growth inhibition of corn are seen; details: corn at 2-leaf stage, 10 days after application
Method: as §1, §3, §4, §5, §6, §7

In the case of `COC(=O)C(C)Oc1cc(-n2c(=O)cc(C(F)(F)F)n(C)c2=O)c(F)cc1Cl` (stereo not drawn) [Compound A, methyl 2-[2-chloro-4-fluoro-5-{3-methyl-2,6-dioxo-4-(trifluoromethyl)-1,2,3,6-tetrahydropyrimidin-1-yl}phenoxy]propionate], the “Herbicidal activity La” value ([1]; dosage 5 g/ha) is reported as 9, the “Herbicidal activity La” value ([1]; dosage 10 g/ha) is reported as 10 and the “Herbicidal activity La” value ([1]; dosage 20 g/ha) is reported as 10. The “Herbicidal activity Mo” value ([2]; dosage 5 g/ha) was 10, the “Herbicidal activity Mo” value ([2]; dosage 10 g/ha) was 10 and the “Herbicidal activity Mo” value ([2]; dosage 20 g/ha) was 10. For the same compound, the “Herbicidal activity Ve” value ([3]; dosage 5 g/ha) was 10, the “Herbicidal activity Ve” value ([3]; dosage 10 g/ha) was 10 and the “Herbicidal activity Ve” value ([3]; dosage 20 g/ha) was 10. The “Phytotoxicity C1” value ([4]; dosage 5 g/ha) was “No harm”, the “Phytotoxicity C1” value ([4]; dosage 10 g/ha) was “No harm” and the “Phytotoxicity C1” value ([4]; dosage 20 g/ha) was “Slight”. For the same compound, the “Phytotoxicity C2” value ([4]; dosage 5 g/ha) was “No harm”, the “Phytotoxicity C2” value ([4]; dosage 10 g/ha) was “No harm” and the “Phytotoxicity C2” value ([4]; dosage 20 g/ha) was “No harm”. For the same compound, the “Herbicidal activity Cocklebur” value ([5]; dosage 2.5 g/ha) was 10, the “Herbicidal activity Cocklebur” value ([5]; dosage 5 g/ha) was 10 and the “Herbicidal activity Cocklebur” value ([5]; dosage 10 g/ha) was 10. For the same compound, the Phytotoxicity corn ([6]; dosage 2.5 g/ha) was “No harm”, the Phytotoxicity corn ([6]; dosage 5 g/ha) was “No harm” and the Phytotoxicity corn ([6]; dosage 10 g/ha) was “No harm”.
In the case of `COC(=O)CSc1cc(-n2c(=O)cc(C(F)(F)F)n(C)c2=O)c(F)cc1Cl` [Comparative compound, reference compound], the “Herbicidal activity Cocklebur” value ([5]; dosage 2.5 g/ha) is reported as 8, the “Herbicidal activity Cocklebur” value ([5]; dosage 5 g/ha) is reported as 10 and the “Herbicidal activity Cocklebur” value ([5]; dosage 10 g/ha) is reported as 10. For the same compound, the Phytotoxicity corn ([6]; dosage 2.5 g/ha) was “No harm”, the Phytotoxicity corn ([6]; dosage 5 g/ha) was “Slight” and the Phytotoxicity corn ([6]; dosage 10 g/ha) was “light”.
